The record followed here is PMC9727064, “Performance assessment and economic analysis of a human Liver-Chip for predictive toxicology” (Communications Medicine, 2022).

In data set [1] the test system is human Liver-Chip (hepatocytes and non-parenchymal cells). The procedure: At least four to six brightfield images were acquired per chip for morphology analysis. […] Brightfield images were acquired across three fields of view on days 1, 3, and 7 for each cycle. Cytotoxicity classification was performed while acquiring images for both NPCs and hepatocytes. Images were then scored zero to four by blinded individuals (n = 2) based on severity of agglomeration of cell debris for both channels. The scoring matrix and representative images have been included in the supplement (Supplementary Fig. 1).
Hepatocyte layer on Chips
Non-parenchymal cell layer on Chips
Supplementary Figure 1. (a) Representative brightfield images to depict the cellular morphology score in the top channel of the Liver-Chip which contains hepatocytes. A score of 0 represents no hepatotoxicity detected, which is defined by 95-100% healthy hepatocyte morphology, hexagonal shape containing binucleated cells, clear cell cytoplasm, distinctive cell junctions and less than 5% dead cells. A score of 1 […]
cells. A score of 2 represents mild hepatotoxicity with > 70% monolayer of hepatocytes visible, evidence that cells have begun to lose their distinct cell junctions, many cells contain a granulated cytoplasm but < 30% are dead cells. A score of 3 represents moderate hepatotoxicity with severe granulation of cytoplasm and most of the cells have lost their junctions. Approximately 50% of the cells are considered dead. A score of 4 represents severe hepatotoxicity with agglomeration of cell debris and > 50% of the cells are considered dead. The pores on the membrane become visible as there is no longer a cellular monolayer. (b) Representative brightfield images to depict the cellular morphology score in the bottom channel of the Liver-Chip which contains non-parenchymal cells. A score of 0 represents no cytotoxicity detected, with an intact monolayer and <1% of the cells are dead. A score of 1 represents at least 90% of the monolayer is present and there are <10% dead cells. A score of 2 represents mild cytotoxicity with > 80% of the monolayer present and < 20% are dead cells. A score of 3 represents moderate cytotoxicity with > 50% of the monolayer present and < 50% are dead cells. A score of 4 represents severe cytotoxicity with > 50% of the cells are considered dead. (bar, 50 μm). […]

The test system of data set [2] is human Liver-Chip (hepatocyte layer). The data set can be described thus: Liver-Chip immunofluorescence imaging (caspase 3/7, TMRM, AdipoRed/LipidTOX). It is filed as cell-based. The following applies: for Immunofluorescence staining result in words: caspase 3/7 (apoptosis) or TMRM (mitotoxicity), 7 days; for Immunofluorescent findings, donor one (Supplementary Figure 3) / Immunofluorescent findings, donor three (Supplementary Figure 3) / Immunofluorescent findings, donor two (Supplementary Figure 3): day 7 post-drug administration, hepatocyte layer, top channel. Here is the method: Chips were detached from pods and washed once with PBS. […] Afterwards, chips were washed with PBS and stored at 4 °C until staining. Following fixation, chips corresponding to low, medium, and high concentrations from each group were cut in half with a razor blade perpendicular to the co-culture channels. One half was used in the following staining protocol, while the other half was stored for future staining. All stains and washes utilized the bubble method, in which a small amount of air is flowed through the channel prior to bulk wash media to prevent a liquid-liquid dilution of the staining solution. […] Following 15 minutes of incubation at room temperature, each channel was washed with 200 µL of PBS (alternating channels, 2× for top and 3× for bottom). As an alternative lipid accumulation marker, 100 µL of HCS LipidTOX Deep Red (ThermoFisher, H34477) was diluted 1:1000 v/v in PBS with NucBlue counterstain and added to the top channel. After a 30 min incubation at room temperature, the chips were again allowed to reach room temperature before the channels were alternatively washed with 200 µL of PBS, the bottom channel undergoing three washes and the top channel undergoing two. Chips were then imaged using the Opera Phenix. Following lipid and DAPI staining and imaging, chips were stained with a […] (MRP2) antibody to visualize the bile canalicular structures characteristic of healthy Liver-Chips. […] Then, each channel was washed with 200 µL of PBS (alternating channels, 2× for top and 3× for bottom). […] Next, primary antibody Mouse anti-MRP2 (Abcam, ab3373) was prepared 1:100 in the original blocking buffer, diluted 1:4 in PBS. 100 µL of solution was added to each channel, and chips were stored overnight at 4 °C. The following day, each channel was washed with 200 µL of PBS (alternating channels, 2× for top and 3× for bottom). […] 100 µL of solution was added to each channel and chips incubated at room temperature, protected from light, for two hours. Then, each channel was washed with 200 µL of PBS (alternating channels, 2× for top and 3× for bottom). Chips were imaged immediately or stored at 4 °C until ready for imaging on the Opera Phenix. Chip replicates designated for live cell imaging were washed with PBS utilizing the bubble method. Chips were then cut in half perpendicular to the co-culture channels. […] The bottom chips halves were stained with NucBlue (Thermo) to visualize nuclei and Tetramethylrhodamine, methyl ester (TMRM) (ThermoFisher, I34361) to visualize active mitochondria. This staining panel was prepared in PBS with 5% FBS, with NucBlue at 2 drops per mL and TMRM at a 1:1000 ratio in original blocking buffer, diluted 1:4 in PBS. Chips were incubated in the dark at 37 °C for 30 min, and then each channel was washed with 200 µL of PBS (alternating channels, 2× for top and 3× for bottom). The chips were kept at 37 °C, protected from light, until ready for imaging with the Opera Phenix. Fluorescent confocal image acquisition was performed using the Opera Phenix High-Content Screening System and Harmony 4.9 Imaging and Analysis Software (PerkinElmer). Before acquisition, the Phenix internal environment was set to 37 °C and 5% CO2. […] Whole chips were placed directly into each slot, while top and bottom half chips were matched and combined in one chip slot. Chips were aligned flush with the adapter and one another. Any bubbles identified from visual inspection were washed out with PBS. Once ready, the stained chips were covered with transparent plate film to seal channel ports and loaded into the Phenix. […] Z-stacks were generated with 3.6 µm between slices for 28–32 planes so that the epithelium was located around the center of the stack. […] Raw images from fixed and live imaging were exported in TIFF format from the Harmony software. Using scripts written for FIJI (ImageJ), TIFFs across three color channels and multiple z-stacks were compiled into composite images for each field of view in each chip. […]

Setting [3] is: lowest concentration causing an increase in cellular morphology score, donor 1.
[4] abbreviates: lowest concentration causing an increase in cellular morphology score, donor 2.
The mark [5] stands for this setting: lowest concentration causing an increase in cellular morphology score, donor 3.

Like-named read-outs stand apart in the source and are kept apart here.

Turning to `N[C@@H]1[C@H]2CN(c3nc4c(cc3F)c(=O)c(C(=O)O)cn4-c3ccc(F)cc3F)C[C@@H]12` [Trovafloxacin], in data set [1] (human), the “Morphology Donor 1” value is on record as 100 multiples of the unbound human Cmax, the “Morphology Donor 2” value is on record as 100 multiples of the unbound human Cmax and the “Morphology Donor 3” value is 30 multiples of the unbound human Cmax. In data set [2], the “Immunofluorescence staining result in words” value is “concentration-dependent increases in caspase 3/7 staining”; the “Immunofluorescent findings, donor one (Supplementary Figure 3)” value (“Immunofluorescent findings, donor one” below) is “Apoptosis”; the “Immunofluorescent findings, donor three (Supplementary Figure 3)” value (“Immunofluorescent findings, donor three” for short) was “Apoptosis”; the “Immunofluorescent findings, donor two (Supplementary Figure 3)” value (from here on “Immunofluorescent findings, donor two”) is given as “Apoptosis”. For the same compound, in data set [2] (matched pair analysis), the “IF imaging Donor 1” value is recorded as “Apoptosis”, the “IF imaging Donor 2” value is reported as “Apoptosis” and the “IF imaging Donor 3” value was “Apoptosis”.
`CCOC(=O)CN[C@@H](C(=O)N1CC[C@H]1C(=O)NCc1ccc(/C(N)=N\O)cc1)C1CCCCC1` [Ximelagatran]: in data set [1] (human), the “Morphology Donor 1” value is on record as 100 unbound human Cmax multiplier and the “Morphology Donor 2” value is 300 unbound human Cmax multiplier. For the same compound, in data set [2], the “Immunofluorescent findings, donor one” value was “No findings” and the “Immunofluorescent findings, donor two” value is on record as “No findings”. Moreover, in data set [2] (expanded drug list), the “IF imaging Donor 1” value was “No findings” and the “IF imaging Donor 2” value is recorded as “No findings”.
On to `Cc1cc2c(cc1CC(=O)c1sccc1S(=O)(=O)Nc1onc(C)c1Cl)OCO2` [Sitaxsentan], for which, in data set [1] (setting [3]), the “Morphology Donor 1” value is recorded as 100 multiples of the unbound human Cmax. Further, the “Morphology Donor 2” value in data set [1] (setting [4]) is reported as 100 multiples of the unbound human Cmax. Further, the “Morphology Donor 3” value in data set [1] (setting [5]) is listed as 100 multiples of the unbound human Cmax. For the same compound, in data set [2], the “Immunofluorescence staining result in words” value was “concentration-dependent decrease in TMRM staining”; the “Immunofluorescent findings, donor one” value is given as “Mitotoxicity”; the “Immunofluorescent findings, donor three” value is “Mitotoxicity”; the “Immunofluorescent findings, donor two” value is “Mitotoxicity”. Also, in data set [2] (matched pair analysis), the “IF imaging Donor 1” value was “Mitotoxicity”, the “IF imaging Donor 2” value is reported as “Mitotoxicity” and the “IF imaging Donor 3” value is listed as “Mitotoxicity”.
As to `COC(c1ccccc1)(c1ccccc1)[C@H](Oc1nc(C)cc(C)n1)C(=O)O` [Ambrisentan], the “Morphology Donor 1” value in data set [1] (setting [3]) was >300 multiples of the unbound human Cmax. Further, the “Morphology Donor 2” value in data set [1] (setting [4]) is >1000 multiples of the unbound human Cmax. In data set [1] (setting [5]), the “Morphology Donor 3” value is reported as >300 multiples of the unbound human Cmax. For the same compound, in data set [2], the “Immunofluorescent findings, donor one” value was “No findings” and the “Immunofluorescent findings, donor three” value is “No findings”. In addition, in data set [2] (matched pair analysis), the “IF imaging Donor 1” value was “No findings”, the “IF imaging Donor 2” value is reported as “No findings” and the “IF imaging Donor 3” value was “No findings”.
For `CC(C(=O)O)c1ccc2oc(-c3ccc(Cl)cc3)nc2c1` (stereo not drawn) [Benoxaprofen], in data set [1] (human), the “Morphology Donor 1” value is given as < 0.1 unbound human Cmax multiplier and the “Morphology Donor 2” value is on record as 100 unbound human Cmax multiplier. The “Immunofluorescent findings, donor two” value in data set [2] is reported as “Apoptosis”. In addition, in data set [2] (expanded drug list), the “IF imaging Donor 1” value is on record as “Apoptosis” and the “IF imaging Donor 2” value is “Apoptosis”.
With `CCc1nn(CCCN2CCN(c3cccc(Cl)c3)CC2)c(=O)n1CCOc1ccccc1` [Nefazodone], the “Morphology Donor 1” value in data set [1] (human) is 300 multiples of the unbound human Cmax. For the same compound, the “Immunofluorescent findings, donor one” value in data set [2] is on record as “No findings”. Moreover, the “IF imaging Donor 1” value in data set [2] (matched pair analysis) is “No findings”.
`Cc1cn([C@H]2C=C[C@@H](CO)O2)c(=O)[nH]c1=O` [Stavudine]: in data set [1] (human), the “Morphology Donor 1” value is 300 unbound human Cmax multiplier and the “Morphology Donor 2” value is 300 unbound human Cmax multiplier. In data set [2], the “Immunofluorescent findings, donor one” value is reported as “No findings” and the “Immunofluorescent findings, donor two” value is “Mitotoxicity”. Moreover, in data set [2] (expanded drug list), the “IF imaging Donor 1” value is recorded as “No findings” and the “IF imaging Donor 2” value is on record as “Mitotoxicity”.
`Cc1c(C)c2c(c(C)c1O)CCC(C)(COc1ccc(CC3SC(=O)NC3=O)cc1)O2` (stereo not drawn) [Troglitazone]: in data set [1] (human), the “Morphology Donor 1” value was 300 multiples of the unbound human Cmax and the “Morphology Donor 2” value is reported as 300 multiples of the unbound human Cmax. In data set [2], the “Immunofluorescent findings, donor one” value is “Apoptosis” and the “Immunofluorescent findings, donor two” value is on record as “Apoptosis”. In addition, in data set [2] (matched pair analysis), the “IF imaging Donor 1” value is “Apoptosis” and the “IF imaging Donor 2” value is given as “Apoptosis”.
Regarding `Cc1ccc(C(=O)c2cc(O)c(O)c([N+](=O)[O-])c2)cc1` [Tolcapone], the “Morphology Donor 1” value in data set [1] (setting [3]) is recorded as 10 multiples of the unbound human Cmax. Besides, in data set [1] (setting [4]), the “Morphology Donor 2” value is listed as 100 multiples of the unbound human Cmax. Also, in data set [2], the “Immunofluorescent findings, donor one” value is “Mitotoxicity” and the “Immunofluorescent findings, donor two” value was “Mitotoxicity”. Moreover, in data set [2] (matched pair analysis), the “IF imaging Donor 1” value is given as “Mitotoxicity” and the “IF imaging Donor 2” value is “Mitotoxicity”.
Turning to `CC(c1cc2ccccc2s1)N(O)C(N)=O` (stereo not drawn) [Zileuton], in data set [1] (human), the “Morphology Donor 1” value was > 100 unbound human Cmax multiplier and the “Morphology Donor 2” value was > 300 unbound human Cmax multiplier. Also, in data set [2], the “Immunofluorescent findings, donor one” value is listed as “No findings” and the “Immunofluorescent findings, donor two” value is on record as “No findings”. For the same compound, in data set [2] (expanded drug list), the “IF imaging Donor 1” value is listed as “No findings” and the “IF imaging Donor 2” value is on record as “No findings”.
With `Nc1c2c(nc3ccccc13)CCCC2` [Tacrine], the “Morphology Donor 1” value in data set [1] (expanded drug list, lowest concentration causing an increase in morphology score, donor 1) is > 300 unbound human Cmax multiplier. For the same compound, in data set [1] (expanded drug list, lowest concentration causing an increase in morphology score, donor 2), the “Morphology Donor 2” value is recorded as > 1000 unbound human Cmax multiplier. In addition, in data set [2], the “Immunofluorescence staining result in words” value is on record as “increased caspase 3/7 staining” and the “Immunofluorescent findings, donor one” value is listed as “Apoptosis”. Further, in data set [2] (expanded drug list), the “IF imaging Donor 1” value is “Apoptosis” and the “IF imaging Donor 2” value is on record as “Apoptosis”.
